US20250052744A1, “Dyes and Uses Thereof” (The University of Liverpool, priority 2021, published 2025)

Legend:
Assay in all cases: Qualitative dye staining on agarose pads (EVOS M7000)
Format in all cases: cell-based
Parameters in all cases: key to Relative fluorescent intensity: Very high: If the cells looked twice as big in the fluorescent channel, it was marked as having “very high” relative fluorescent intensity; High: if the cells looked bigger in the fluorescent channel, it was marked as having “high” relative fluorescent intensity; Medium: If the cells looked almost the same size in the fluorescent channel and the bright field, it was marked as having “medium” relative fluorescent intensity; Low: If the cells looked smaller in the fluorescent channel as compared to the brightfield but still the whole cell was visible, it was marked as having “low” relative fluorescent intensity; Negligible: If only a few traces of a cell was visible in the fluorescent channel, it was marked as having “negligible” relative fluorescent intensity
Settings in all cases: DiSC3(5) 3 μM, SYBR Green I 10×, SYTO 13 3 μM, FM4-64 15 μM
Klebsiella pneumoniae = test system: Klebsiella pneumoniae
Streptococcus agalactiae = test system: Streptococcus agalactiae
Klebsiella oxytoca = test system: Klebsiella oxytoca
[1] = Table 7 commercial strain Klebsiella pneumoniae NCTC 9633
[2] = Table 7 commercial strain Klebsiella pneumoniae NCTC 14335
[3] = Table 8 sample Klebsiella pneumoniae (094)
[4] = Table 8 sample Klebsiella pneumoniae (095)
[5] = Table 6 thresholds, Streptococcus agalactiae
[6] = Table 7 commercial strain Streptococcus agalactiae NCTC 11239
[7] = Table 8 sample Streptococcus agalactiae (081)
[8] = Table 8 sample Streptococcus agalactiae (082)
[9] = Table 8 sample Streptococcus agalactiae (083)
[10] = Table 8 sample Klebsiella oxytoca (091)
[11] = Table 8 sample Klebsiella oxytoca (092)
[12] = Table 8 sample Klebsiella oxytoca (093)

Row | Compound | Percentage of cells stained (Klebsiella pneumoniae; [1]) | Relative fluorescent intensity (Klebsiella pneumoniae; [1]) | Percentage of cells stained (Klebsiella pneumoniae; [2]) | Relative fluorescent intensity (Klebsiella pneumoniae; [2]) | Percentage of cells stained (Klebsiella pneumoniae; [3]) | Relative fluorescent intensity (Klebsiella pneumoniae; [3]) | Percentage of cells stained (Klebsiella pneumoniae; [4]) | Relative fluorescent intensity (Klebsiella pneumoniae; [4]) | Percentage of cells stained (Streptococcus agalactiae; [5]) | Relative fluorescent intensity (Streptococcus agalactiae; [5]) | Percentage of cells stained (Streptococcus agalactiae; [6]) | Relative fluorescent intensity (Streptococcus agalactiae; [6]) | Percentage of cells stained (Streptococcus agalactiae; [7]) | Relative fluorescent intensity (Streptococcus agalactiae; [7]) | Percentage of cells stained (Streptococcus agalactiae; [8]) | Relative fluorescent intensity (Streptococcus agalactiae; [8]) | Percentage of cells stained (Streptococcus agalactiae; [9]) | Relative fluorescent intensity (Streptococcus agalactiae; [9]) | Percentage of cells stained (Klebsiella oxytoca; [10]) | Relative fluorescent intensity (Klebsiella oxytoca; [10]) | further results
1 | CCCN1C(=CC=CC=Cc2sc3ccccc3[n+]2CCC)Sc2ccccc21.[I-] [DiSC3(5), 3,3′-Dipropylthiadicarbocyanine Iodide] | Half | Low | Almost all | Low | Half | Low | Almost all | Low | Almost all | low and Low | Almost all | Low | Almost all | Low | Almost all | Low | Almost all | Low | Almost all | Medium | Percentage of cells stained (Klebsiella oxytoca; [11]): Almost all; Relative fluorescent intensity (Klebsiella oxytoca; [11]): Low; Percentage of cells stained (Klebsiella oxytoca; [12]): Half; Relative fluorescent intensity (Klebsiella oxytoca; [12]): Low
2 | CCN(CC)c1ccc(C=CC=CC=Cc2cc[n+](CCC[N+](CC)(CC)CC)cc2)cc1.[Br-].[Br-] [FM 4-64, N-(3-Triethylammoniumpropyl)-4-(6-(4-(Diethylamino) Phenyl) Hexatrienyl) Pyridinium Dibromide] | Few | Low | Half | Low | Few | Low | Few | Low | Almost all | High | Almost all | High | Almost all | High | Almost all | High | Almost all | High | Few | Low | Percentage of cells stained (Klebsiella oxytoca; [11]): Almost all; Relative fluorescent intensity (Klebsiella oxytoca; [11]): Low; Percentage of cells stained (Klebsiella oxytoca; [12]): Half; Relative fluorescent intensity (Klebsiella oxytoca; [12]): Low
3 | CCCN(CCCN(C)C)c1cc(/C=C2/Sc3ccccc3N2C)c2ccccc2[n+]1-c1ccccc1 [SYBR Green I, N′,N′-dimethyl-N-[4-[(E)-(3-methyl-1,3-benzothiazol-2-ylidene)methyl]-1-phenylquinolin-1-ium-2-yl]-N-propylpropane-1,3-diamine] | Half | Low | Almost all | Low | Half | Low | Almost all | Low | Almost all | very high | Almost all | Very high | Almost all | Very high | Almost all | Very high | Almost all | Very high | Almost all | Low | Relative fluorescent intensity (Streptococcus agalactiae; Table 6 thresholds, Streptococcus agalactiae, listed as SYBR Green): Very high; Percentage of cells stained (Klebsiella oxytoca; [11]): Almost all; Relative fluorescent intensity (Klebsiella oxytoca; [11]): Low; Percentage of cells stained (Klebsiella oxytoca; [12]): Half; Relative fluorescent intensity (Klebsiella oxytoca; [12]): Low
